Source: publication PMC6173055, “Structure and function of a glycoside hydrolase family 8 endoxylanase from Teredinibacter turnerae” (Acta Crystallographica. Section D, Structural Biology, 2018)

Biological target: T1, TtGH8 (Teredinibacter turnerae, UniProt C5BJ89)
T1 construct: gene TERTU_4506; catalytic domain, residues 41-436; signal peptide and linker removed; N-terminal His6 tag cut off with 3C protease; codon-optimised, expressed in E. coli BL21
Assay: thermal shift (SYPRO Orange)
Format: binding
Settings: 10 mM ligand

T1 sequence (C5BJ89 entry or part of it): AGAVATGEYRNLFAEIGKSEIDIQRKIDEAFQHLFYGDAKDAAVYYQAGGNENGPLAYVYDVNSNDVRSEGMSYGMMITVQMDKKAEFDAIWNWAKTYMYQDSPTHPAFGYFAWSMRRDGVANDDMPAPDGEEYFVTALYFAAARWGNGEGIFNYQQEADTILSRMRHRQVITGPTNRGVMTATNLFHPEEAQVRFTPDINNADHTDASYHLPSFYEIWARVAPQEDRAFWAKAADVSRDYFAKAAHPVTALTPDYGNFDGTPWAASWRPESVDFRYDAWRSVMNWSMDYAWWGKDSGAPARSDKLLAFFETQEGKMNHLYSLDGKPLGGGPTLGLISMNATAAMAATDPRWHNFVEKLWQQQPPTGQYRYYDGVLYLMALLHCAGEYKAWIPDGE

increase in melting temperature: 2.9 °C
Structure (SMILES): OC1OC[C@@H](O[C@@H]2OC[C@@H](O[C@@H]3OC[C@@H](O[C@@H]4OC[C@@H](O[C@@H]5OC[C@@H](O[C@@H]6OC[C@@H](O)[C@H](O)[C@H]6O)[C@H](O)[C@H]5O)[C@H](O)[C@H]4O)[C@H](O)[C@H]3O)[C@H](O)[C@H]2O)[C@H](O)[C@H]1O (stereo partly shown) [X6, xylohexaose]
